Laboratory results as given in US9029356B2, “Substituted indazole derivatives active as kinase inhibitors” (Nerviano Medical Services S.R.L., priority 2007, dated 2015).

Tests used:
ALK = ALK (Homo sapiens (Human), UniProt Q9UM73); test: Biochemical assay for inhibitors of ALK kinase activity; settings: 20 nM enzyme, 8 microM ATP, 2 microM MBP
Source text: Preparation of ALK Cytoplasmic Domain for Use in Biochemical Assay
For cloning purposes, the oligonucleotides included attB sites in order to obtain an attB-flanked PCR product suitable for cloning using the Gateway technology (Invitrogen). Furthermore, for purification purposes, forward primer included a PreScission cleavage site (Amersham Biosciences). The resulting PCR product was cloned in the baculovirus expression vector pVL1393 (Invitrogen) Gateway-modified. For expression and purification purpose, a GST tag was added N-terminal to the ALK cytoplasmic domain. Cloning was performed according to the protocols described in the Gateway manual (Invitrogen).
Affinity purified GST-ALK was loaded on a Heparin Sepharose™ FF (Amersham Biosciences) column and eluted with 50 mM NaCl, 25 mM TRIS pH 7.5, 2 mM DTT, 20% glycerol.
Biochemical Assay for Inhibitors of ALK Kinase Activity

IGF-1R = IGF-1R (Homo sapiens (Human), UniProt P08069); test: Biochemical assay for inhibitors of IGF-1R kinase activity; settings: 6 nM enzyme, 6 microM ATP, 10 microM peptide substrate
Sequence of IGF-1R (P08069 960-1367): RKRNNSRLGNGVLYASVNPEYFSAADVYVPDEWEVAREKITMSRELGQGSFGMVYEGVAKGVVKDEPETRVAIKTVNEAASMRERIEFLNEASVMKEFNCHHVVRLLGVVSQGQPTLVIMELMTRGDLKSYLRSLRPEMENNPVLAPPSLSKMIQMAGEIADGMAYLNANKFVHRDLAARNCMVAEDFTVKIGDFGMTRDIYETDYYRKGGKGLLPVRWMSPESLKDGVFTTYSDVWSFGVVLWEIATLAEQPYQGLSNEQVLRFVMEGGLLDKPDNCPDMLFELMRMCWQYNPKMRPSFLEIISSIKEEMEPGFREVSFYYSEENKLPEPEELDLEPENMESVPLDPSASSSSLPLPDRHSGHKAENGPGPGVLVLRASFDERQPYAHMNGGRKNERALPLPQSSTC
Description: Biochemical Assay for Inhibitors of IGF-1 R Kinase Activity The inhibitory activity of putative kinase inhibitors and the potency of selected compounds were determined using a trans-phosphorylation assay. A specific substrate was incubated with the kinase in appropriate buffer conditions in the presence of ATP traced with ^33P-γ-ATP (gamma phosphate-labeled, RedivueTM Code Number AH9968, 1000-3000 Ci/mmole, Amersham Biosciences Piscataway, N.J., USA), optimal cofactors and test compound. At the end of the phosphorylation reaction, more than 98% cold and radioactive ATP were captured by an excess of Dowex ion exchange resin. The resin was allowed to settle to the bottom of reaction wells by gravity. Supernatant, containing substrate peptide, was subsequently withdrawn and transferred into a counting plate, and radioactivity (corresponding to phosphate incorporated into peptide) was evaluated by β-counting. […] Prior to starting the kinase inhibition assay, IGF-1R was pre-phosphorylated in order to linearize reaction kinetics. […] The peptide was obtained in batches of >95% peptide purity from American Peptide Company, Inc. (Sunnyvale, Calif., USA). […] Compounds showing desired inhibition were further analysed in order to study the potency of the inhibitor through IC50 calculation. […]

Sequence of ALK (Q9UM73 1060-1620): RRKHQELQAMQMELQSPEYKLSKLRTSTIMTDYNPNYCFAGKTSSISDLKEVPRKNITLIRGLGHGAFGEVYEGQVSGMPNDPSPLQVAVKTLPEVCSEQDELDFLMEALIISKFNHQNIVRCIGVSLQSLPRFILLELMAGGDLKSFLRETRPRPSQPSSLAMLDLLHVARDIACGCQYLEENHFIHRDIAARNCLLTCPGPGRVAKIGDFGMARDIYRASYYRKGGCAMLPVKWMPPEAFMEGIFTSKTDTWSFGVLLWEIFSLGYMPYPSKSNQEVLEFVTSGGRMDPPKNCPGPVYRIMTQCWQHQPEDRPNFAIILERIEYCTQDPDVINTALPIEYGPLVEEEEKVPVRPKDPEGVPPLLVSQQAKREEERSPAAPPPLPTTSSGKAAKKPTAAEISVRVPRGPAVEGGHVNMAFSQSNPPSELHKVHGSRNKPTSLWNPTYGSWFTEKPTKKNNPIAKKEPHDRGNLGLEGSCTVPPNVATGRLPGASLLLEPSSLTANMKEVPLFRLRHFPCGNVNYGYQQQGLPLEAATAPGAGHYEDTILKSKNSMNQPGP

Row | SMILES | IC50 (ALK) [µM] | IC50 (IGF-1R) [µM]
1 | COCCNc1cc(N2CCN(C)CC2)ccc1C(=O)Nc1n[nH]c2ccc(Cc3cc(F)cc(F)c3)cc12 [Cpd 26, N-[5-(3,5-Difluoro-benzyl)-1H-indazol-3-yl]-2-(2-methoxy-ethylamino)-4-(4-methyl-piperazin-1-yl)-benzamide] | 0.411 | –
2 | CN1CCN(c2ccc(C(=O)Nc3n[nH]c4ccc(Cc5cc(F)cc(F)c5)cc34)cc2)CC1 [Cpd 4, N-[5-(3,5-Difluoro-benzyl)-1H-indazol-3-yl]-4-(4-methyl-piperazin-1-yl)-benzamide] | 0.207 | –
3 | CN1CCN(c2ccc(C(=O)Nc3n[nH]c4ccc(Cc5cc(F)cc(F)c5)cc34)c(NC3CCCCC3)c2)CC1 [Cpd 18, 2-Cyclohexylamino-N-[5-(3,5-difluoro-benzyl)-1H-indazol-3-yl]-4-(4-methyl-piperazin-1-yl)-benzamide] | 1.77 | 6.07
